In ChEMBL document CHEMBL3046296, “Development of a New Herbicide, Indanofan” (J Pestic Sci, 2004):

Tests used:
Poa annua = experiment: Pre-emergence herbicide activity against Poa annua up to two-leaf stage; assay type: functional
Echinochloa oryzicola [1] = experiment: Pre-emergence herbicide activity against Echinochloa oryzicola after 42 days; assay type: functional
Zoysia matrella = experiment: Pre-emergence herbicide activity against Zoysia matrella measured 7 days after planting; assay type: functional
Echinochloa oryzicola [2] = experiment: Pre-emergence herbicide activity against Echinochloa oryzicola up to three-leaf stage; assay type: functional
Echinochloa crus-galli = experiment: Pre-emergence herbicide activity against Echinochloa crus-galli (barnyard grass) up to 3-leaf stage; assay type: functional
[3] = Octanol-water partition co-efficient, log P of the compound in water at 25 degC; assay type: physicochemical

CCC1(CC2(c3cccc(Cl)c3)CO2)C(=O)c2ccccc2C1=O (stereo not drawn) [(RS)-INDANOFAN]
Activity (Poa annua): 0.5 KgAi/ha
Activity (Echinochloa oryzicola [1]): 0.15 KgAi/ha
Activity (Zoysia matrella): 1 KgAi/ha
Activity (Echinochloa oryzicola [2]): 0.15 KgAi/ha
Activity (Echinochloa crus-galli): 0.15 KgAi/ha
logP [3]: 3.59
